Reference: patent publication US7704995B2 (Exelixis, Inc., priority 2003, dated 2010)

Target: T1, Chk1 (Homo sapiens, UniProt O14757)
T1 construct: purchased Upstate Biotechnology
T1 sequence (O14757 1-476): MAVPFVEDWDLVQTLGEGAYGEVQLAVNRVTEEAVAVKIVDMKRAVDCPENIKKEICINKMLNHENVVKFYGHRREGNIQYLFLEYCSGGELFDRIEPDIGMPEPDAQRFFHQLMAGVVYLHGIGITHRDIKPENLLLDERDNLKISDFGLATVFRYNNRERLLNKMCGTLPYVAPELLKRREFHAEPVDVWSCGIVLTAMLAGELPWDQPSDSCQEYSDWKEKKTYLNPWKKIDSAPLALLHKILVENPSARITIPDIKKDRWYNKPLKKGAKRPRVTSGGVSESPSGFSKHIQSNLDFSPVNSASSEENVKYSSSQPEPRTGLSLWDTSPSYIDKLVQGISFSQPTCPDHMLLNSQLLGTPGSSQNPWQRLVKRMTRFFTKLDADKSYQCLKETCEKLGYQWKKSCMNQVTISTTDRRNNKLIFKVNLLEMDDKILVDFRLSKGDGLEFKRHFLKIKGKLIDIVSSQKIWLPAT
Assay: Chk1 kinase assay: incorporation of γ-33P ATP into immobilized myelin basic protein
Type: biochemical
Conditions: Table 11, Chk1 only; class symbols A-D; read-out: Chk1 IC50
Method in brief: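 Immobilized-MBP radiometric kinase assay, room temperature for 1 h; ATP 10 μM (Chk1, 10 nM enzyme) or 30 μM (Chk2, 20 nM enzyme) with 33P tracer. Values are IC50s, with Ki derived from them.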

Structure (SMILES) | IC50
NCc1cccc(-c2cnc(N)c(-c3nc([C@H]4CCCNC4)n[nH]3)n2)c1 [Example 923, 5-[3-(aminomethyl)phenyl]-3-{3-[(3S)-piperidin-3-yl]-1H-1,2,4-triazol-5-yl}pyrazin-2-amine] | < 50 nM
CN1CCN(c2ccc(CNC(=O)c3cccc(-c4cnc(N)c(C(=O)N[C@H]5CCCNC5)n4)c3)cc2)CC1 [Example 924, 3-amino-6-{3-[({[4-(4-methylpiperazin-1-yl)phenyl]methyl}amino)carbonyl]phenyl}-N-[(3S)-piperidin-3-yl]pyrazine-2-carboxamide] | < 50 nM
Nc1ncc(-c2cccc(C(=O)NCCc3ccc(F)cc3)c2)nc1C(=O)N[C@H]1CCCNC1 [Example 925, 3-amino-6-[3-({[2-(4-fluorophenyl)ethyl]amino}carbonyl)phenyl]-N-[(3S)-piperidin-3-yl]pyrazine-2-carboxamide] | < 50 nM
Nc1ncc(-c2cccc(C(=O)NCCN3CCOCC3)c2)nc1C(=O)N[C@H]1CCCNC1 [Example 926, 3-amino-6-(3-{[(2-morpholin-4-ylethyl)amino]carbonyl}phenyl)-N-[(3S)-piperidin-3-yl]pyrazine-2-carboxamide] | 50 to 1000 nM
Nc1ncc(-c2cccc(C(=O)NC[C@H]3CCCN3)c2)nc1C(=O)N[C@H]1CCCNC1 [Example 927, 3-amino-N-[(3S)-piperidin-3-yl]-6-[3-({[(2R)-pyrrolidin-2-ylmethyl]amino}carbonyl)phenyl]pyrazine-2-carboxamide] | < 50 nM
Nc1ncc(-c2cccc(C(=O)N[C@H]3CCCN3)c2)nc1C(=O)N[C@H]1CCCNC1 [Example 928, 3-amino-N-[(3S)-piperidin-3-yl]-6-(3-{[(2S)-pyrrolidin-2-ylamino]carbonyl}phenyl)pyrazine-2-carboxamide] | < 50 nM
Nc1ncc(-c2cccc(C(=O)NC3CCCC3)c2)nc1C(=O)N[C@H]1CCCNC1 [Example 929, 3-amino-6-{3-[(cyclopentylamino)carbonyl]phenyl}-N-[(3S)-piperidin-3-yl]pyrazine-2-carboxamide] | 50 to 1000 nM
Nc1ncc(-c2cccc(CNC(=O)Nc3ccc(OC(F)(F)F)cc3)c2)nc1C(=O)N[C@H]1CCCNC1 [Example 930, 3-amino-N-[(3S)-piperidin-3-yl]-6-[3-({[({4-[(trifluoromethyl)oxy]phenyl}amino)carbonyl]amino}methyl)phenyl]pyrazine-2-carboxamide] | < 50 nM
Nc1ncc(-c2cccc(CNC(=O)Nc3ccc(C(F)(F)F)cc3)c2)nc1C(=O)N[C@H]1CCCNC1 [Example 931, 3-amino-N-[(3S)-piperidin-3-yl]-6-(3-{[({[4-(trifluoromethyl)phenyl]amino}carbonyl)amino]methyl}phenyl)pyrazine-2-carboxamide] | < 50 nM
COc1ccc(C(=O)NCc2cccc(-c3cnc(N)c(C(=O)N[C@H]4CCCNC4)n3)c2)cc1 [Example 932, 3-amino-6-{3-[({[4-(methyloxy)phenyl]carbonyl}amino)methyl]phenyl}-N-[(3S)-piperidin-3-yl]pyrazine-2-carboxamide] | < 50 nM
Nc1ncc(-c2cccc(CNC(=O)c3ccc(-c4ccccc4)cc3)c2)nc1C(=O)N[C@H]1CCCNC1 [Example 933, 3-amino-6-(3-{[(biphenyl-4-ylcarbonyl)amino]methyl}phenyl)-N-[(3S)-piperidin-3-yl]pyrazine-2-carboxamide] | < 50 nM
Nc1ncc(-c2cccc(CNC(=O)c3ccco3)c2)nc1C(=O)N[C@H]1CCCNC1 [Example 934, 3-amino-6-(3-{[(furan-2-ylcarbonyl)amino]methyl}phenyl)-N-[(3S)-piperidin-3-yl]pyrazine-2-carboxamide] | < 50 nM
Nc1ncc(-c2cccc(CNC(=O)Nc3ccc4c(c3)OCCO4)c2)nc1C(=O)N[C@H]1CCCNC1 [Example 935, 3-amino-6-[3-({[(2,3-dihydro-1,4-benzodioxin-6-ylamino)carbonyl]amino}methyl)phenyl]-N-[(3S)-piperidin-3-yl]pyrazine-2-carboxamide] | < 50 nM
Nc1ncc(-c2cccc(CNC(=O)c3ccc4c(c3)CCO4)c2)nc1C(=O)N[C@H]1CCCNC1 [Example 936, 3-amino-6-(3-{[(2,3-dihydro-1-benzofuran-5-ylcarbonyl)amino]methyl}phenyl)-N-[(3S)-piperidin-3-yl]pyrazine-2-carboxamide] | < 50 nM
Nc1ncc(-c2cccc(CNS(=O)(=O)c3ccc4c(c3)OCCO4)c2)nc1C(=O)N[C@H]1CCCNC1 [Example 937, 3-amino-6-(3-{[(2,3-dihydro-1,4-benzodioxin-6-ylsulfonyl)amino]methyl}phenyl)-N-[(3S)-piperidin-3-yl]pyrazine-2-carboxamide] | < 50 nM
Nc1ncc(-c2cccc(CNC(=O)c3cccs3)c2)nc1C(=O)N[C@H]1CCCNC1 [Example 938, 3-amino-N-[(3S)-piperidin-3-yl]-6-(3-{[(2-thienylcarbonyl)amino]methyl}phenyl)pyrazine-2-carboxamide] | < 50 nM
Nc1ncc(-c2cccc(CNC(=O)C3COc4ccccc4O3)c2)nc1C(=O)N[C@H]1CCCNC1 (stereo partly drawn) [Example 939, 3-amino-6-(3-{[(2,3-dihydro-1,4-benzodioxin-2-ylcarbonyl)amino]methyl}phenyl)-N-[(3S)-piperidin-3-yl]pyrazine-2-carboxamide] | < 50 nM
Nc1ncc(-c2cccc(CNC(=O)c3ccccc3Cl)c2)nc1-c1nc([C@H]2CCCNC2)n[nH]1 [Example 940, N-{[3-(5-amino-6-{3-[(3S)-piperidin-3-yl]-1H-1,2,4-triazol-5-yl}pyrazin-2-yl)phenyl]methyl}-2-chlorobenzamide] | < 50 nM
Nc1ncc(-c2cccc(CNC(=O)c3ccc(Cl)cc3)c2)nc1-c1nc([C@H]2CCCNC2)n[nH]1 [Example 941, N-{[3-(5-amino-6-{3-[(3S)-piperidin-3-yl]-1H-1,2,4-triazol-5-yl}pyrazin-2-yl)phenyl]methyl}-4-chlorobenzamide] | < 50 nM
Nc1ncc(-c2cccc(CNC(=O)c3ccc(I)cc3)c2)nc1-c1nc([C@H]2CCCNC2)n[nH]1 [Example 942, N-{[3-(5-amino-6-{3-[(3S)-piperidin-3-yl]-1H-1,2,4-triazol-5-yl}pyrazin-2-yl)phenyl]methyl}-4-iodobenzamide] | < 50 nM
Nc1ncc(-c2cccc(CNC(=O)c3cc(F)cc(F)c3)c2)nc1-c1nc([C@H]2CCCNC2)n[nH]1 [Example 943, N-{[3-(5-amino-6-{3-[(3S)-piperidin-3-yl]-1H-1,2,4-triazol-5-yl}pyrazin-2-yl)phenyl]methyl}-3,5-difluorobenzamide] | < 50 nM
Nc1ncc(-c2cccc(CNC(=O)c3ccc(Br)cc3F)c2)nc1-c1nc([C@H]2CCCNC2)n[nH]1 [Example 944, N-{[3-(5-amino-6-{3-[(3S)-piperidin-3-yl]-1H-1,2,4-triazol-5-yl}pyrazin-2-yl)phenyl]methyl}-4-bromo-2-fluorobenzamide] | < 50 nM
Nc1ncc(-c2cccc(CNC(=O)c3ccc(Br)cc3Cl)c2)nc1-c1nc([C@H]2CCCNC2)n[nH]1 [Example 945, N-{[3-(5-amino-6-{3-[(3S)-piperidin-3-yl]-1H-1,2,4-triazol-5-yl}pyrazin-2-yl)phenyl]methyl}-4-bromo-2-chlorobenzamide] | < 50 nM
